From ChEMBL document CHEMBL1201862, “PubChem BioAssay data set” (2004)
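1) Cells in 96-well plates. 2) Compound, 48 h, 5 concentrations. 3) Linear interpolation between surrounding doses. 4) Unreached endpoint = highest concentration. Abbreviation: GI50, concentration required for 50% inhibition of growth.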 Calls of active or inactive are those of the source. Rule as the data show it: active = GI50 up to about 1.1 µM and inactive = higher.

Assays:
Assay in all cases: inhibition of tumour cell growth, NCI panel, 48 h
[1] = tested on: IGROV-1
[2] = tested on: HL-60
[3] = tested on: SF-539
[4] = tested on: T47D
[5] = tested on: UO-31
[6] = tested on: MDA-MB-231
[7] = tested on: NCI-H23
[8] = tested on: MDA-MB-435
[9] = tested on: PC-3
[10] = tested on: HOP-62
[11] = tested on: CCRF-CEM
[12] = tested on: OVCAR-5
[13] = tested on: SR
[14] = tested on: SK-MEL-28
[15] = tested on: SN12C
[16] = tested on: OVCAR-4
[17] = tested on: NCI-H226
[18] = tested on: TK-10
[19] = tested on: MOLT-4
[20] = tested on: DU-145

Measured: GI50

COC(=O)[C@@]12CC[C@]1(C(=O)OC)C1C(C)=CC(=O)O[C@@]12C (stereo not given in full)
inactive: [1] > 100 µM | [2] > 100 µM | [3] > 100 µM | [4] > 100 µM | [5] > 100 µM | [6] > 100 µM | [7] > 100 µM | [8] > 100 µM | [9] > 100 µM | [10] > 100 µM | [11] > 100 µM | [12] > 100 µM | [13] > 100 µM | [14] > 100 µM | [15] > 100 µM | [16] > 100 µM | [17] > 100 µM | [18] > 100 µM | [19] > 100 µM | [20] > 100 µM
